Data from ChEMBL document CHEMBL2157954.
Activity calls are given as the source filed them. The rule behind the calls is not given here.

Key:
Rattus norvegicus [1] = organism: Rattus norvegicus; assay: […] activity in rat with several spinal cord injury assessed as increase in locomotory function; format: functional, organism-based
Rattus norvegicus [2] = organism: Rattus norvegicus; assay: […] activity in rat with several spinal cord injury assessed as increase in voiding function; format: functional, organism-based
Lymphocyte = assay: Immunosuppressive activity against autoimmune lymphocytes assessed as inhibition of cell expansion; format: functional, cell-based
Rattus norvegicus [3] = assay: […] activity in rat with several spinal cord injury assessed as increase in locomotory function at 20 mg/kg/day for 7 days; format: functional, organism-based
Rattus norvegicus [4] = assay: […] activity in rat with several spinal cord injury assessed as increase in voiding function at 20 mg/kg/day for 7 days; format: functional, organism-based

Row | SMILES | Activity (Rattus norvegicus [1]) | Activity (Rattus norvegicus [2]) | inhibition (Lymphocyte) | Activity (Rattus norvegicus [3]) | Activity (Rattus norvegicus [4])
1 | Cc1cc(NC(=O)/C(C#N)=C(\O)C2CC2)ccc1C(F)(F)F | Active | Active |  |  | 
2 | C/C(O)=C(\C#N)C(=O)Nc1ccc(C(F)(F)F)cc1 | Active | Active |  |  | 
3 | Cc1oncc1C(=O)Nc1ccc(C(F)(F)F)cc1 |  |  | Active | Active | Active
